In US20240382471A1, “GLUCAGON-LIKE PEPTIDE-1 RECEPTOR MODULATORS AND USES THEREOF” (HEPAGENE THERAPEUTICS (HK) LIMITED, priority 2021, published 2024):

Target: GLP1R (Homo sapiens, UniProt P43220)
Assay: GLP1R cAMP assay (HTRF cAMP detection, agonist activity)
Format: cell-based
Set-up: host or cells: Flp-In-293
Details: Flp-In-293-GLP1R cells, 30 min at 37° C., read-out: EC50 (nM) Assay 1
Procedure: GLP1R-mediated agonist activity was determined with a cell-based functional assay utilizing an HTRF (Homogeneous Time-Resolved Fluorescene) cAMP detection kit that measures CAMP levels in the cell. Reagents and equipment used in the assay are listed below, followed by the protocol.
• 1) Cell Line: Flp-In-293-GLP1R (constructed by Pharmaron Beijing Co., Ltd) • 2) Complete Medium: DMEM+10% FBS+1×Penicillin-Streptomycin+200 μg/mL HB • 3) Assay Buffer: 1×HBSS+20 mM HEPES+0.1% BSA+500 μM IBMX
• a) Seed Flpin-293-GLP1R cells at 20,000 cells/well into 384 well assay plate (6007680-50, PE) using complete medium. • b) Prepare 4×compound working solution with assay buffer. • c) Add 5 μL 4×compound working solution into cell plate, incubate 30 min at 37° C. • d) Dilute Eu-cAMP tracer (1/50) with lysis buffer and add 10 μl/well to assay plate. • e) Dilute Ulight-anti-cAMP (1/150) with lysis buffer and add 10 μl/well to assay plate. • f) Incubate 1 h at RT. • g) Read the plate at wavelengths of 665 nm and 615 nm on Envision 2105 plate reader.
• 3.1% Activity is calculated as follow:
% Activity=100−(Signalcmpd−SignalAve_PC)/(SignalAve_VC−SignalAve_PC)×100. • 3.2 Calculate EC50 and Plot effect-dose curve of cmpds:
Y=Bottom+(Top−Bottom)/(1+10^((Log EC50−X)*Hill Slope)) • X: log of agonist concentration; Y: % Activity.

Sequence of GLP1R (P43220 24-463, species assumed): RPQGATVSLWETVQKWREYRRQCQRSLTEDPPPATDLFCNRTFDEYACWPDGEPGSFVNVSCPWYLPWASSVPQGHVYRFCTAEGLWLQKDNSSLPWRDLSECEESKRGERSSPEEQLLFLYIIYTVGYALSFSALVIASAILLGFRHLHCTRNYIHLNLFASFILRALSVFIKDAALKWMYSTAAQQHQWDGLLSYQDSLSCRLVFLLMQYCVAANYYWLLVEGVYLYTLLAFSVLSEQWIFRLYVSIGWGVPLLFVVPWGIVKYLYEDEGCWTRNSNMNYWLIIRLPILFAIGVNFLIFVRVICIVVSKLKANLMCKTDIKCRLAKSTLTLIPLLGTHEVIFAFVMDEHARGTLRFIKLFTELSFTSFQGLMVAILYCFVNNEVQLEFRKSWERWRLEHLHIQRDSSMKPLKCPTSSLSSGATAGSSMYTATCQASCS

Row | Compound | EC50 [nM]
1 | 2-((3-(6-((4-cyano-2-fluorobenzyl)oxy)pyridin-2-yl)-3,8-diazabicyclo[3.2.1]octan-8-yl)methyl)-1-((oxetan-2-yl)methyl)-1H-benzo[d]imidazole-6-carboxylic acid [Compound 2-30] | 0.375
2 | N#Cc1ccc(COc2ccnc(C34CCN(Cc5nc6ccc(C(=O)O)cc6n5C[C@@H]5CCO5)CC3C4)c2)c(F)c1 (single isomer, unassigned) [Compound 1-2-A] | > 4
3 | N#Cc1ccc(COc2ccnc(C34CCN(Cc5nc6ccc(C(=O)O)cc6n5C[C@@H]5CCO5)CC3C4)c2)c(F)c1 (single isomer, unassigned) [Compound 1-2-B] | > 4
4 | N#Cc1ccc(COc2cccc(C34CCN(Cc5nc6ccc(C(=O)O)cc6n5C[C@@H]5CCO5)CC3C4)c2)c(F)c1 (single isomer, unassigned) [Compound 1-9-A] | 1.01
5 | N#Cc1ccc(COc2cccc(C34CCN(Cc5nc6ccc(C(=O)O)cc6n5C[C@@H]5CCO5)CC3C4)c2)c(F)c1 (single isomer, unassigned) [Compound 1-9-B] | 1.05
6 | N#Cc1ccc(COc2ccnc(C34CCN(Cc5nc6ccc(C(=O)O)cc6n5C[C@@H]5CCO5)CC3C4)n2)c(F)c1 (single isomer, unassigned) [Compound 1-11-A] | 0.995
7 | N#Cc1ccc(COc2ccnc(C34CCN(Cc5nc6ccc(C(=O)O)cc6n5C[C@@H]5CCO5)CC3C4)n2)c(F)c1 (single isomer, unassigned) [Compound 1-11-B] | 0.017
8 | COc1cc(C#N)ccc1COc1cccc(C23CCN(Cc4nc5ccc(C(=O)O)cc5n4C[C@@H]4CCO4)CC2C3)n1 (stereo partly drawn) [Compound 1-6, 2-((6-(6-((4-cyano-2-methoxybenzyl)oxy)pyridin-2-yl)-3-azabicyclo[4.1.0]heptan-3-yl)methyl)-1-(((S)-oxetan-2-yl)methyl)-1H-benzo[d]imidazole-6-carboxylic acid] | 0.003
9 | N#Cc1ccc(COc2cccc(C34CCN(Cc5nc6ccc(C(=O)O)cc6n5C[C@@H]5CCO5)CC3C4)n2)cc1F (stereo partly drawn) [Compound 1-7, 2-((6-(6-((4-cyano-3-fluorobenzyl)oxy)pyridin-2-yl)-3-azabicyclo[4.1.0]heptan-3-yl)methyl)-1-(((S)-oxetan-2-yl)methyl)-1H-benzo[d]imidazole-6-carboxylic acid] | 0.175
10 | N#Cc1ccc(COc2ccnc(C34CCN(Cc5nc6ccc(C(=O)O)cc6n5C[C@@H]5CCO5)CC3C4)n2)c(F)c1 (stereo partly drawn) [Compound 1-11, 2-((6-(4-((4-cyano-2-fluorobenzyl)oxy)pyrimidin-2-yl)-3-azabicyclo[4.1.0]heptan-3-yl)methyl)-1-(((S)-oxetan-2-yl)methyl)-1H-benzo[d]imidazole-6-carboxylic acid] | 0.079
11 | N#Cc1ccc(COc2cccc(N3CC4CCC(C3)N4Cc3nc4ccc(C(=O)O)cc4n3C[C@@H]3CCO3)n2)c(F)c1 [Compound 2, 2-((−3-(6-((4-cyano-2-fluorobenzyl)oxy)pyridin-2-yl)-3,8-diazabicyclo[3.2.1]octan-8-yl)methyl)-1-(((S)-oxetan-2-yl)methyl)-1H-benzo[d]imidazole-6-carboxylic acid] | 1.22
12 | N#Cc1ccc(COc2cccc(N3C4CC3CN(Cc3nc5ccc(C(=O)O)cc5n3C[C@@H]3CCO3)C4)n2)c(F)c1 [Compound 2-2, 2-((6-(6-((4-cyano-2-fluorobenzyl)oxy)pyridin-2-yl)-3,6-diazabicyclo[3.1.1]heptan-3-yl)methyl)-1-(((S)-oxetan-2-yl)methyl)-1H-benzo[d]imidazole-6-carboxylic acid] | > 4
13 | O=C(O)c1ccc2nc(CN3C4CC3CN(c3cccc(OCc5ccc(Cl)cc5F)n3)C4)n(C[C@@H]3CCO3)c2c1 [Compound 2-3, 2-((−3-(6-((4-chloro-2-fluorobenzyl)oxy)pyridin-2-yl)-3,6-diazabicyclo[3.1.1]heptan-6-yl)methyl)-1-(((S)-oxetan-2-yl)methyl)-1H-benzo[d]imidazole-6-carboxylic acid] | > 4
14 | N#Cc1ccc(COc2cccc(N3CC4CCC(C3)N4Cc3nc4ccc(C(=O)O)cc4n3C[C@@H]3CCO3)n2)cc1 [Compound 2-4, 2-[(3-{6-[(4-cyanophenyl)methoxy]pyridin-2-yl}-3,8-diazabicyclo[3.2.1]octan-8-yl)methyl]-3-[(2S)-oxetan-2-ylmethyl]-1,3-benzodiazole-5-carboxylic acid] | > 4
15 | O=C(O)c1ccc2nc(CN3C4CCC3CN(c3cccc(OCc5ccncc5)n3)C4)n(C[C@@H]3CCO3)c2c1 [Compound 2-5, 3-[(2S)-oxetan-2-ylmethyl]-2-({3-[6-(pyridin-4-ylmethoxy)pyridin-2-yl]-3,8-diazabicyclo[3.2.1]octan-8-yl}methyl)-1,3-benzodiazole-5-carboxylic acid] | > 4
16 | O=C(O)c1ccc2nc(CN3C4CCC3CN(c3cccc(OCc5ccc(Cl)cc5F)n3)C4)n(C[C@@H]3CCO3)c2c1 [Compound 2-6, 2-[(3-{6-[(4-chloro-2-fluorophenyl)methoxy]pyridin-2-yl}-3,8-diazabicyclo[3.2.1]octan-8-yl)methyl]-3-[(2S)-oxetan-2-ylmethyl]-1,3-benzodiazole-5-carboxylic acid] | 0.643
17 | O=C(O)c1ccc2nc(CN3C4CCC3CN(c3cccc(OCc5ccc(F)cc5F)n3)C4)n(C[C@@H]3CCO3)c2c1 [Compound 2-7, 2-((−3-(6-((2,4-difluorobenzyl)oxy)pyridin-2-yl)-3,8-diazabicyclo[3.2.1]octan-8-yl)methyl)-1-(((S)-oxetan-2-yl)methyl)-1H-benzo[d]imidazole-6-carboxylic acid] | > 4
18 | Cc1ccc(COc2cccc(N3CC4CCC(C3)N4Cc3nc4ccc(C(=O)O)cc4n3C[C@@H]3CCO3)n2)c(F)c1 [Compound 2-8, 2-[(3-{6-[(2-fluoro-4-methylphenyl)methoxy]pyridin-2-yl}-3,8-diazabicyclo[3.2.1]octan-8-yl)methyl]-3-[(2S)-oxetan-2-ylmethyl]-1,3-benzodiazole-5-carboxylic acid] | > 4
19 | N#Cc1ccc(COc2cccc(N3CC4CCC(C3)N4Cc3nc4ccc(C(=O)O)cc4n3CC3CCO3)n2)c(F)c1 (stereo not shown) [Compound 2-9, 2-((−3-(6-((4-cyano-2-fluorobenzyl)oxy)pyridin-2-yl)-3,8-diazabicyclo[3.2.1]octan-8-yl)methyl)-1-(oxetan-2-ylmethyl)-1H-benzo[d]imidazole-6-carboxylic acid] | > 4
20 | N#Cc1ccc(COc2cccc(N3CC4CCC(C3)N4Cc3nc4ccc(C(=O)O)cc4n3C[C@@H]3CCCO3)n2)c(F)c1 [Compound 2-10, 2-((−3-(6-((4-cyano-2-fluorobenzyl)oxy)pyridin-2-yl)-3,8-diazabicyclo[3.2.1]octan-8-yl)methyl)-1-(((S)-tetrahydrofuran-2-yl)methyl)-1H-benzo[d]imidazole-6-carboxylic acid] | > 4
21 | N#Cc1ccc(COc2cccc(N3CC4CCC(C3)N4Cc3nc4ccc(C(=O)O)cc4n3CC3CCOC3)n2)c(F)c1 (stereo not shown) [Compound 2-11, 2-[(3-{6-[(4-cyano-2-fluorophenyl)methoxy]pyridin-2-yl}-3,8-diazabicyclo[3.2.1]octan-8-yl)methyl]-3-(oxolan-3-ylmethyl)-1,3-benzodiazole-5-carboxylic acid] | > 4
22 | N#Cc1ccc(COc2cccc(N3CC4CCC(C3)N4Cc3nc4ccc(C(=O)O)cc4n3Cc3ncco3)n2)c(F)c1 [Compound 2-12, 2-((−3-(6-((4-cyano-2-fluorobenzyl)oxy)pyridin-2-yl)-3,8-diazabicyclo[3.2.1]octan-8-yl)methyl)-1-(oxazol-2-ylmethyl)-1H-benzo[d]imidazole-6-carboxylic acid] | > 4
23 | O=C(O)c1ccc2nc(CN3C4CCC3CN(c3cccc(OCc5ccncc5F)n3)C4)n(C[C@@H]3CCO3)c2c1 [Compound 2-13, 2-[(3-{6-[(3-fluoropyridin-4-yl)methoxy]pyridin-2-yl}-3,8-diazabicyclo[3.2.1]octan-8-yl)methyl]-3-[(2S)-oxetan-2-ylmethyl]-1,3-benzodiazole-5-carboxylic acid] | > 4
24 | CS(=O)(=O)c1ccc(COc2cccc(N3CC4CCC(C3)N4Cc3nc4ccc(C(=O)O)cc4n3C[C@@H]3CCO3)n2)cc1 [Compound 2-14, 2-((−3-(6-((4-(methylsulfonyl)benzyl)oxy)pyridin-2-yl)-3,8-diazabicyclo[3.2.1]octan-8-yl)methyl)-1-(((S)-oxetan-2-yl)methyl)-1H-benzo[d]imidazole-6-carboxylic acid] | > 4
25 | O=C(O)c1ccc2nc(CN3C4CCC3CN(c3cccc(OCc5ccc(C(F)(F)F)cc5F)n3)C4)n(C[C@@H]3CCO3)c2c1 [Compound 2-15, 2-((−3-(6-((2-fluoro-4-(trifluoromethyl)benzyl)oxy)pyridin-2-yl)-3,8-diazabicyclo[3.2.1]octan-8-yl)methyl)-1-(((S)-oxetan-2-yl)methyl)-1H-benzo[d]imidazole-6-carboxylic acid] | > 4
